Where a name gives a salt, the structure may show the parent alone.
Key:
[1] = system: d-amphetamine-stimulated locomotor activity in rats; experiment: d-Amphetamine-stimulated locomotor activity (LMA); format: in vivo, Sprague Dawley rat; conditions: rat, oral, 30 min before d-amphetamine 1 mg/kg s.c., 2 h recording
Description: d-Amphetamine-Stimulated Locomotor Activity (LMA):
The LMA model is used to test novel compounds for efficacy as orally active dopaminergic (DA) antagonists. In this model, administration of d-amphetamine to rats induces a stimulation of locomotor activity, measured as centimeters traveled over a two-hour period. Compounds are administered prior to d-amphetamine, and their efficacy in decreasing the stimulated locomotion is assessed as a measure of DA antagonism.
Sprague Dawley (S-D) male rats were obtained from Harlan Laboratories, Indianapolis Ind. All rats weighed 130-150 g at the time of arrival and were housed in groups of 5 for at least 1 week prior to testing. Food and water were available ad lib. At the time of testing, rats weighed 150-200 g. Tests occurred between 9:00 AM and 4:00 PM. All rats were food deprived overnight prior to testing.
Locomotor activity testing in rats was performed using 16-Beam Digiscan Animal Activity Monitors (Accuscan Electronics, Columbus, Ohio). Each test chamber consisted of a Plexiglas box measuring 16×16 inches, placed within the monitor frame. The entire monitor/chamber assembly is further housed inside a stainless steel sound-attenuating chamber (SAC). The SAC is lighted, ventilated, and isolates the rat from room environment. Rats were tested one per chamber. Data is collected using Versamax software.
Each test consists of four treatment groups, vehicle and three doses of the test compound. Each treatment group is comprised of 8 animals. The test is performed in two sessions, with 4 groups of 4 rats in each treatment group tested in each session, and data from the two sessions, typically morning and afternoon of the same day, combined to give a total of 8 rats per group.
Rats were removed from the housing room and transported to the test room in transfer cages. […]
Data were collected as centimeters traveled during the 2 hour test period. The effect of the test compound was expressed as a percentage decrease (or increase) in stimulated locomotor activity relative to the activity observed in the vehicle-treated group. […]

[2] = biological target: T1, dopamine D2 receptor (Homo sapiens, UniProt P14416); experiment: Dopamine D2 receptor binding ([3H]spiperone, CHO-hD2L membranes); conditions: [3H]spiperone 0.4 nM
T1 construct: expressed in transfected cells; host or cells: CHO cells (CHO-hD2L)
T1 sequence (P14416 whole entry): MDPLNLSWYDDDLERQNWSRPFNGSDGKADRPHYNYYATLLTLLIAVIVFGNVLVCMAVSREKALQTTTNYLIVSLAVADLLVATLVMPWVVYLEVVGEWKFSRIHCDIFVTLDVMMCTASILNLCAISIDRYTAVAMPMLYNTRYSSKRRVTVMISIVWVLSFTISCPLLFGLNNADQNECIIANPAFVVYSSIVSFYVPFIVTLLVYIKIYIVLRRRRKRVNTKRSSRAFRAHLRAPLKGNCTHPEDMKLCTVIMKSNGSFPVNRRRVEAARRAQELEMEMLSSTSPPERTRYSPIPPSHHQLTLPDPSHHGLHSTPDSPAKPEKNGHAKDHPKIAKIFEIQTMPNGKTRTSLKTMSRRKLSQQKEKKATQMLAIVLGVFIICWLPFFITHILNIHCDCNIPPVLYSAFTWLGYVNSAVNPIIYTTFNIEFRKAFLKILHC
Excerpt: (§1) The ability of the compounds of this invention to bind to the dopamine D2 and serotonin 2A (5HT2A) receptors can be determined using conventional radioligand receptor binding assays. All receptors can be heterologously expressed in cell lines and experiments conducted in membrane preparations from the cell lines using procedures outlined below. IC50 concentrations can be determined by nonlinear regression of concentration-dependent reduction in specific binding. The Cheng-Prussoff equation can be used to convert the IC50 to Ki concentrations.
Dopamine D2 Receptor Binding:
[^3H]Spiperone binding to a membrane preparation from CHO-hD2L cells is carried out in 250 μl of 50 mM Tris-HCl buffer containing 100 mM NaCl, 1 mM MgCl2 and 1% DMSO at pH 7.4. Duplicate samples containing (in order of addition) the test compounds, 0.4 nM [^3H]spiperone and approximately 12 μg protein are incubated for 120 minutes at room temperature. Bound radioligand is separated by rapid filtration under reduced pressure through Whatman GF/B glass fiber filters previously treated with 0.3% polyethyleneimine. Radioactivity retained on the filter is determined by liquid scintillation spectrophotometry.
The title compounds of Examples 1-6 were tested using the above assay, in which specific binding determined in the presence of 1 mM haloperidol was 95%.

[3] = biological target: T2, serotonin 2A (5HT2A) receptor (Homo sapiens, UniProt P28223); experiment: Serotonin 2A binding ([3H]ketanserin, Swiss-h5HT2A cell membranes); conditions: [3H]ketanserin 1.0 nM
T2 construct: expressed in transfected cells; host or cells: Swiss cells (Swiss-h5HT2A)
T2 sequence (P28223 whole entry): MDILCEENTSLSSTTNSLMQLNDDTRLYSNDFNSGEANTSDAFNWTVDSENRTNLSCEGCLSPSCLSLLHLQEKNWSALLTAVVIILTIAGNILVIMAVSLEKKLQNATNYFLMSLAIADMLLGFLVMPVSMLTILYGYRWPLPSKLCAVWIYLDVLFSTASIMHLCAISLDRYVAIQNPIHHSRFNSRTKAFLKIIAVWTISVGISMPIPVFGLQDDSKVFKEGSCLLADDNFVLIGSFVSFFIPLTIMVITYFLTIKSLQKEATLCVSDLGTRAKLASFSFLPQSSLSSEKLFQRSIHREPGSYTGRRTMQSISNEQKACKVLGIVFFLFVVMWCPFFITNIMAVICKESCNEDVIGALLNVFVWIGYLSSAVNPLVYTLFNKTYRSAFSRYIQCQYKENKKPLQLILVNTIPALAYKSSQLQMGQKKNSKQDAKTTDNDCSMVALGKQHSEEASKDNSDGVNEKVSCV
Excerpt: as §1
[^3H] Ketanserin binding to Swiss-h5HT2A cell membranes can be carried out in 250 μl of 50 mM Tris-HCl buffer pH 7.4. Duplicate samples containing (in order of addition) test compounds, 1.0 nM [^3H]ketanserin, and approximately 75 μg protein are incubated for 120 minutes at room temperature. Bound radioligand is separated by rapid filtration under reduced pressure through Whatman GF/B glass fiber filters previously treated with 0.3% polyethyleneimine. Radioactivity retained on the filter is determined by liquid scintillation spectrophotometry.
The title compounds of Examples 1-6 were tested using the above assay, in which specific binding determined in the presence of 1 mM ketanserin was 90%.

Structure (SMILES) | melting point | other results
Cl.O=C1CCc2cccc(CCN3CCN(c4nsc5ccccc45)CC3)c2N1 | 251 °C | –
CC(=O)N1CCC(C)(C)c2cc(F)cc(CCN3CCN(c4nsc5ccc(F)cc45)CC3)c21 (as salt: HCl) | 128 °C | –
CC(=O)N1CCC(C)(C)c2cccc(CCCN3CCN(c4nsc5ccccc45)CC3)c21 (as salt: HCl) [Example 19, 1-{8-[3-(4-BENZO[D]ISOTHIAZOL-3-YL-PIPERAZIN-1-YL)-PROPYL]-4,4-DIMETHYL-3,4-DIHYDRO-2H-QUINOLIN-1-YL}-ETHANONE] | 109 °C | –
CC(=O)N1CCC(C)(C)c2c(C)ccc(CCN3CCN(c4nsc5ccccc45)CC3)c21 (as salt: HCl) [Example 21, 1-{8-[2-(4-BENZO[D]ISOTHIAZOL-3-YL-PIPERAZIN-1-YL)-ETHYL]-4,4,5-TRIMETHYL-3,4-DIHYDRO-2H-QUINOLIN-1-YL}-ETHANONE] | 132 °C | –
CC(=O)N1CCC(C)(C)c2c(C)ccc(CCN3CCN(c4noc5ccccc45)CC3)c21 (as salt: HCl) [Example 26, 1-{8-[2-(4-BENZO[D]ISOXAZOL-3-YL-PIPERAZIN-1-YL)-ETHYL]-4,4,5-TRIMETHYL-3,4-DIHYDRO-2H-QUINOLIN-1-YL}-ETHANONE] | 230 °C | –
CC(=O)N1CCC(C)(C)c2cc(F)cc(CCN3CCN(c4noc5ccccc45)CC3)c21 (as salt: HCl) [Example 28, 1-{8-[2-(4-benzo[d]isoxazol-3-yl-piperazin-1-yl)-ethyl]-6-fluoro-4,4-dimethyl-3,4-dihydro-2H-quinolin-1-yl}-ethanone] | 112 °C | –
CC1(C)CC(=O)Nc2c(CCN3CCN(c4nsc5ccccc45)CC3)cccc21 (as salt: hydrochloride) [Example 1, 8-[2-(4-1,2-BENZISOTHIAZOL-3-YL-PIPERAZIN-1-YL)-ETHYL]-4,4-DIMETHYL-3,4-DIHYDRO-1H-QUINOLIN-2-ONE] | 284 °C | –
CC1(C)CC(=O)Nc2c(CCN3CCN(c4nsc5ccccc45)CC3)cc(F)cc21 (as salt: hydrochloride) [Example 3, 8-[2-(4-1,2-BENZISOTHIAZOL-3-YL-PIPERAZIN-1-YL)-ETHYL]-6-FLUORO-4,4-DIMETHYL-3,4-DIHYDRO-1H-QUINOLIN-2-ONE] | 298 °C | –
CC1(C)CC(=O)Nc2c(CCN3CCN(c4nsc5ccccc45)CC3)cccc21 [Example 1, 8-[2-(4-1,2-BENZISOTHIAZOL-3-YL-PIPERAZIN-1-YL)-ETHYL]-4,4-DIMETHYL-3,4-DIHYDRO-1H-QUINOLIN-2-ONE] | – | activity in reducing d-amphetamine-stimulated locomotor activity (significant decrease vs vehicle) [1]: active
CN1C(=O)CC(C)(C)c2cccc(CCN3CCN(c4nsc5ccccc45)CC3)c21 [Example 2, 8-[2-(4-1,2-BENZISOTHIAZOL-3-YL-PIPERAZIN-1-YL)-ETHYL]-1,4,4-TRIMETHYL-3,4-DIHYDRO-1H-QUINOLIN-2-ONE] | 261 °C | Ki [2]: 81.3 nM; Ki [3]: 0.18 nM
CC1(C)CC(=O)Nc2c(CCN3CCN(c4nsc5ccccc45)CC3)cc(F)cc21 [Example 3, 8-[2-(4-1,2-BENZISOTHIAZOL-3-YL-PIPERAZIN-1-YL)-ETHYL]-6-FLUORO-4,4-DIMETHYL-3,4-DIHYDRO-1H-QUINOLIN-2-ONE] | – | activity in reducing d-amphetamine-stimulated locomotor activity (significant decrease vs vehicle) [1]: active
CC1(C)Cc2cccc(CCN3CCN(c4nsc5ccccc45)CC3)c2NC1=O [Example 5, 8-[2-(4-1,2-BENZISOTHIAZOL-3-YL-PIPERAZIN-1-YL)-ETHYL]-3,3-DIMETHYL-3,4-DIHYDRO-1H-QUINOLIN-2-ONE] | 95 °C | Ki [2]: 74.9 nM; Ki [3]: 2.07 nM
O=C1CC(c2ccccc2)c2cccc(CCN3CCN(c4nsc5ccccc45)CC3)c2N1 (stereo not drawn) [Example 6, 8-[2-(4-1,2-BENZISOTHIAZOL-3-YL-PIPERAZIN-1-YL)-ETHYL]-4-PHENYL-3,4-DIHYDRO-1H-QUINOLIN-2-ONE] | 227 °C | Ki [2]: 13.8 nM; Ki [3]: 0.04 nM
CC1(C)CC(=O)Nc2c(CCN3CCN(c4n[s+]([O-])c5ccccc45)CC3)cc(F)cc21 (stereo not drawn) [Example 14, 6-Fluoro-4,4-dimethyl-8-{2-[4-(1−oxo-1H-1λ^4-benzo[d]isothiazol-3-yl)-piperazin-1-yl]-ethyl}-3,4-dihydro-1H-quinolin-2-one] | 235 °C | –
CC1(C)CC(=O)Nc2c(CCN3CCN(c4nsc5ccc(F)cc45)CC3)cc(F)cc21 [Example 16, 6-FLUORO-8-{2-[4-(5-FLUORO-BENZO[D]ISOTHIAZOL-3-YL)-PIPERAZIN-1-YL]-ETHYL}-4,4-DIMETHYL-3,4-DIHYDRO-1H-QUINOLIN-2-ONE] | 191 °C | –
CC1(C)CC(=O)Nc2c(CCCN3CCN(c4nsc5ccccc45)CC3)cccc21 [Example 18, 8-[3-(4-BENZO[D]ISOTHIAZOL-3-YL-PIPERAZIN-1-YL)-PROPYL]-4,4-DIMETHYL-3,4-DIHYDRO-1H-QUINOLIN-2-ONE] | 166 °C | –
Cc1ccc(CCN2CCN(c3nsc4ccccc34)CC2)c2c1C(C)(C)CC(=O)N2 [Example 20, 8-[2-(4-BENZO[D]ISOTHIAZOL-3-YL-PIPERAZIN-1-YL)-ETHYL]-4,4,5-TRIMETHYL-3,4-DIHYDRO-1H-QUINOLIN-2-ONE] | 129 °C | –
Cc1ccc(CCN2CCN(c3noc4ccccc34)CC2)c2c1C(C)(C)CC(=O)N2 [Example 24, 8-[2-(4-BENZO[D]ISOXAZOL-3-YL-PIPERAZIN-1-YL)-ETHYL]-4,4,5-TRIMETHYL-3,4-DIHYDRO-1H-QUINOLIN-2-ONE] | 170 °C | –
Cc1ccc(CCN2CCN(c3noc4ccccc34)CC2)c2c1C(C)(C)CCN2 [Example 25, 8-[2-(4-BENZO[D]ISOXAZOL-3-YL-PIPERAZIN-1-YL)-ETHYL]-4,4,5-TRIMETHYL-1,2,3,4-TETRAHYDRO-QUINOLINE] | 135 °C | –
CC1(C)CC(=O)Nc2c(CCN3CCN(c4noc5ccccc45)CC3)cc(F)cc21 [Example 27, 8-[2-(4-BENZO[D]ISOXAZOL-3-YL-PIPERAZIN-1-YL)-ETHYL]-6-FLUORO-4,4-DIMETHYL-3,4-DIHYDRO-1H-QUINOLIN-2-ONE] | 230 °C | –
Cc1cc(=O)[nH]c2c(CCN3CCN(c4nsc5ccccc45)CC3)cccc12 [Example 29, 8-[2-(4-BENZO[D]ISOTHIAZOL-3-YL-PIPERAZIN-1-YL)-ETHYL]-4-METHYL-1H-QUINOLIN-2-ONE] | – | activity in reducing d-amphetamine-stimulated locomotor activity (significant decrease vs vehicle) [1]: active
